Source: patent US10155021B2, “Antimicrobial 4-oxoquinolizines” (Emergent Product Development Gaithersburg Inc., priority 2011, dated 2018)
Converted amounts (≈) assume the structure as drawn. Like-named read-outs stand apart in the source and are kept apart here.

Legend:
B. anthracis = test: microbe, parasite or virus in culture; format: cell-based; details: Bacillus anthracis, read-out: MIC B. anthracis
F. tularensis = test: microbe, parasite or virus in culture; format: cell-based; details: Francisella tularensis, read-out: MIC F. tularensis
B. abortus = test: microbe, parasite or virus in culture; format: cell-based; details: Brucella abortus, read-out: MIC B. abortus
B. pseudomallei = test: microbe, parasite or virus in culture; format: cell-based; details: Burkholderia pseudomallei, read-out: MIC B. pseudomallei
A. baumannii ATCC 19606 [1] = test: MIC determination for Acinetobacter strains (Example 3); format: cell-based; details: ATCC19606, reference strain
[2] = test system: Acinetobacter spp. H064200250; test: as above; format: cell-based, Acinetobacter sp.; details: LEV R, CIP R, MRP R, IMP I
A. baumannii A489 [3] = test: as above; format: cell-based; details: LEV R, CIP R, MRP R, IMP R, AMK R, TET R
A. baumannii A390 [4] = test: as above; format: cell-based; details: LEV R, CIP R, MRP R, IPM I, AMK R, TET I
A. baumannii A472 [5] = test: as above; format: cell-based; details: LEV R, CIP R, MRP I, IMP I, AMK R, TET R
A. baumannii A473 [6] = test: as above; format: cell-based; details: LEV R, CIP R, MRP R, IMP R, AMK R, TET R
[7] = test system: resistant strains of A. baumannii and one strain of Acinetobacter sp.; test: MIC without and with sub-inhibitory polymyxin B, whole panel / MIC ranges (Example 4; also strains not listed separately); format: cell-based; details: for MIC: Acinetobacter baumannii
[8] = test system: 11 strains of A. baumannii and one strain of Acinetobacter sp.; test: Preliminary MBC without and with sub-inhibitory polymyxin B, whole panel (Example 4; also strains not listed separately); format: cell-based; details: Acinetobacter baumannii
A. baumannii ATCC 19606 [9] = test: MIC without and with sub-inhibitory polymyxin B (Example 4); format: cell-based, Acinetobacter baumannii; details: Acinetobacter baumannii, ATCC19606, A. baumannii ATCC 19606, without polymyxin B, read-out: MIC without PB
[10] = test system: Acinetobacter sp. (H064200250); test: as above; format: cell-based; details: Acinetobacter, without polymyxin B, read-out: MIC without PB
A. baumannii A390 [11] = test: as above; format: cell-based, Acinetobacter baumannii; details: Acinetobacter baumannii, A390, A. baumannii A390, without polymyxin B, read-out: MIC without PB
A. baumannii A401 [12] = test: as above; format: cell-based, Acinetobacter baumannii; details: Acinetobacter baumannii, A401, A baumannii A 401; without polymyxin B; 2nd experiment; visual reading; read-out: MIC without PB
A. baumannii A472 [13] = test: as above; format: cell-based, Acinetobacter baumannii; details: Acinetobacter baumannii, A472, A. baumannii A472, without polymyxin B, read-out: MIC without PB
A. baumannii A473 [14] = test: as above; format: cell-based, Acinetobacter baumannii; details: Acinetobacter baumannii, A473, A. baumannii A473; without polymyxin B; 1st experiment; read-out: MIC without PB
A. baumannii A489 [15] = test: as above; format: cell-based, Acinetobacter baumannii; details: Acinetobacter baumannii, A489, A. baumannii A489, without polymyxin B, read-out: MIC without PB
A. baumannii ATCC 19606 [16] = test: Preliminary MBC without and with sub-inhibitory polymyxin B (Example 4); format: cell-based, Acinetobacter baumannii; details: Acinetobacter baumannii, ATCC19606, read-out: MBC without PB, A. baumannii ATCC 19606, without polymyxin B, preliminary MBC
A. baumannii J2 [17] = test: as above; format: cell-based, Acinetobacter baumannii
[18] = test system: Acinetobacter sp. (H064200250); test: as above; format: cell-based; details: Acinetobacter, read-out: MBC without PB
Experimental: The plates were incubated for 18-20 hours at 37° C. The MBC was read as the lowest concentration at which colony growth was ca. 90% less than the positive control (i.e. usually where single colonies or no colonies were observed).

A. baumannii A329 = test: as above; format: cell-based, Acinetobacter baumannii; details: Acinetobacter baumannii
A. baumannii A390 [19] = test: as above; format: cell-based, Acinetobacter baumannii; details: Acinetobacter baumannii, A390, read-out: MBC without PB
A. baumannii A401 [20] = test: as above; format: cell-based, Acinetobacter baumannii; details: Acinetobacter baumannii, A401, read-out: MBC without PB
A. baumannii A472 [21] = test: as above; format: cell-based, Acinetobacter baumannii; details: Acinetobacter baumannii, A472, read-out: MBC without PB, A. baumannii A472, without polymyxin B, 2nd experiment
A. baumannii A489 [22] = test: as above; format: cell-based, Acinetobacter baumannii; details: Acinetobacter baumannii, A489, read-out: MBC without PB, A. baumannii A489, without polymyxin B, 2nd experiment
B. thailandensis = test: microbe, parasite or virus in culture; format: cell-based, Burkholderia thailandensis
S. aureus 101 = test: MIC, standard panel of Gram-positive and Gram-negative bacteria (CLSI); format: cell-based, Staphylococcus aureus; details: Staphylococcus aureus, 101; CAMHB; read-out: MIC S. aureus 101
E. faecium 19434 = test: as above; format: cell-based, Enterococcus faecium; details: Enterococcus faecium, 19434; CAMHB; read-out: MIC E. faecium 19434
E. coli 25922 = test: as above; format: cell-based, Escherichia coli; details: Escherichia coli, 25922; CAMHB; read-out: MIC E. coli 25922
P. aeruginosa 27853 = test: as above; format: cell-based, Pseudomonas aeruginosa; details: Pseudomonas aeruginosa, 27853; CAMHB; read-out: MIC P. aeruginosa 27853
E. coli CTX-M-15 = test: MIC, panel of quinolone-resistant strains (CLSI); format: cell-based; details: Escherichia coli, CTXM15; CIP R, ESBL
E. coli 2906 = test: MIC, panel of quinolone-resistant strains (CLSI); format: cell-based; details: Escherichia coli, CIP R
Klebsiella ssp KPC-3 = test: MIC, panel of quinolone-resistant strains (CLSI); format: cell-based, Klebsiella spp; details: KPC3, CIP R, ESBL
Pseudomonas ssp PER-1 = test: MIC, panel of quinolone-resistant strains (CLSI); format: cell-based, Pseudomonas spp; details: PER1, CIP R, ESBL
P. aeruginosa 1388-3-02 = test: MIC, panel of quinolone-resistant strains (CLSI); format: cell-based; details: Pseudomonas aeruginosa, 1388302; CIP R, POL R
P. aeruginosa 143-3-03 = test: MIC, panel of quinolone-resistant strains (CLSI); format: cell-based; details: Pseudomonas aeruginosa, 143303; CIP I, POL R
S. pneumoniae 1027 = test: MIC, panel of quinolone-resistant strains (CLSI); format: cell-based; details: Streptococcus pneumoniae, LEV R
A. baumannii J2 [23] = test: MIC without and with sub-inhibitory polymyxin B (Example 4); format: cell-based, Acinetobacter baumannii; details: A. baumannii J2; +[…] polymyxin B; 2nd experiment; visual reading
[24] = Acinetobacter spp. H064200250 (OXA51), 2nd experiment, visual reading
[25] = Acinetobacter spp. H064200250, 1st experiment

Cc1c(-c2cccc(N)c2)ccn2c(=O)c(C(=O)O)cc(C3CC3)c12 [Compound 9, 8-(3-amino-phenyl)-1-cyclopropyl-9-methyl-4-oxo-quinolizine-3-carboxylic acid]
MIC (B. anthracis): 0.06 µg/mL (≈ 0.179 µM) | MIC (F. tularensis): 0.125 µg/mL (≈ 0.374 µM) | MIC (B. abortus): 0.25 µg/mL (≈ 0.748 µM) | MIC (B. pseudomallei): 0.5 µg/mL (≈ 1.5 µM)

COc1c(N2C[C@@H]3CCCN[C@@H]3C2)c(F)cc2c(=O)c(C(=O)O)cn(C3CC3)c12 [Moxifloxacin, reference compound]
MIC (A. baumannii ATCC 19606 [1]): 0.5 µg/mL (≈ 1.25 µM) | MIC [2]: 16 µg/mL (≈ 39.9 µM) | MIC (A. baumannii A489 [3]): 16 µg/mL (≈ 39.9 µM) | MIC (A. baumannii A390 [4]): 16 µg/mL (≈ 39.9 µM) | MIC (A. baumannii A472 [5]): 16 µg/mL (≈ 39.9 µM) | MIC (A. baumannii A473 [6]): 16 µg/mL (≈ 39.9 µM) | fold greater activity (fold lower MIC) in presence of polymyxin B compared to without polymyxin B [7]: not significantly affected | MIC ([7]; NCTC13301, A. baumannii NCTC 13301, without polymyxin B, 2nd experiment, visual reading, read-out: MIC without PB): 64 µg/mL (≈ 159 µM) | MIC ([7]; without polymyxin B, 2nd experiment, 11 strains, read-out: MIC range without PB 14-10-2008 n = 11): 8 to 64 µg/mL (≈ 19.9 to 159 µM) | MBC ([8]; NCTC13301, read-out: MBC without PB, A. baumannii NCTC 13301, without polymyxin B, 1st experiment): 32 µg/mL (≈ 79.7 µM) | MBC ([8]; NCTC13301, read-out: MBC without PB, A. baumannii NCTC 13301, without polymyxin B, 2nd experiment): 64 µg/mL (≈ 159 µM) | MBC ([8]; read-out: MBC without PB, A. baumannii A14, without polymyxin B, 1st experiment): 32 µg/mL (≈ 79.7 µM) | MBC ([8]; read-out: MBC without PB, A. baumannii A14, without polymyxin B, 2nd experiment): 32 µg/mL (≈ 79.7 µM) | MIC (A. baumannii ATCC 19606 [9]; 1st experiment): 0.5 µg/mL (≈ 1.25 µM) | MIC (A. baumannii ATCC 19606 [9]; 2nd experiment, visual reading): 1 µg/mL (≈ 2.49 µM) | MIC [10, 24]: 16 µg/mL (≈ 39.9 µM) | MIC [10, 25]: 16 µg/mL (≈ 39.9 µM) | MIC (A. baumannii A390 [11]; 1st experiment): 16 µg/mL (≈ 39.9 µM) | MIC (A. baumannii A390 [11]; 2nd experiment, visual reading): 16 µg/mL (≈ 39.9 µM) | MIC (A. baumannii A401 [12]): 16 µg/mL (≈ 39.9 µM) | MIC (A. baumannii A472 [13]; 1st experiment): 16 µg/mL (≈ 39.9 µM) | MIC (A. baumannii A472 [13]; 2nd experiment, visual reading): 16 µg/mL (≈ 39.9 µM) | MIC (A. baumannii A473 [14]): 16 µg/mL (≈ 39.9 µM) | MIC (A. baumannii A489 [15]; 1st experiment): 16 µg/mL (≈ 39.9 µM) | MIC (A. baumannii A489 [15]; 2nd experiment, visual reading): 16 µg/mL (≈ 39.9 µM) | MBC (A. baumannii ATCC 19606 [16]; 2nd experiment): 1 µg/mL (≈ 2.49 µM) | MBC (A. baumannii ATCC 19606 [16]; 1st experiment): 0.5 µg/mL (≈ 1.25 µM) | MBC (A. baumannii J2 [17]; Acinetobacter baumannii, J2, read-out: MBC without PB): 32 µg/mL (≈ 79.7 µM) | MBC [18]: 16 µg/mL (≈ 39.9 µM) | MBC (A. baumannii A329; A329, read-out: MBC without PB, A. baumannii A329, without polymyxin B, 1st experiment): 64 µg/mL (≈ 159 µM) | MBC (A. baumannii A329; A329, read-out: MBC without PB, A. baumannii A329, without polymyxin B, 2nd experiment): 32 µg/mL (≈ 79.7 µM) | MBC (A. baumannii A390 [19]): 16 µg/mL (≈ 39.9 µM) | MBC (A. baumannii A401 [20]): 16 µg/mL (≈ 39.9 µM) | MBC (A. baumannii A472 [21]): 16 µg/mL (≈ 39.9 µM) | MBC (A. baumannii A489 [22]): 16 µg/mL (≈ 39.9 µM)

Cc1c(-c2ccc(CN)cc2)c(F)cn2c(=O)c(C(=O)O)cc(C3CC3)c12 [Compound 6, 8-(4-aminomethyl-phenyl)-1-cyclopropyl-7-fluoro-9-methyl-4-oxo-quinolizine-3-carboxylic acid]
MIC (B. anthracis): 0.125 µg/mL (≈ 0.341 µM) | MIC (F. tularensis): 0.125 µg/mL (≈ 0.341 µM) | MIC (B. abortus): 0.5 µg/mL (≈ 1.36 µM) | MIC (B. pseudomallei): 2 µg/mL (≈ 5.46 µM) | MIC90 (B. thailandensis; Burkholderia thailandensis, read-out: MIC90 B. thailandensis): 0.39 µg/mL (≈ 1.06 µM) | Dilutions improvement shift on B. thailandensis MIC90 (between pH 7 and pH 5) (B. thailandensis; pH 7 versus pH 5): No | MIC (S. aureus 101): 2 µg/mL (≈ 5.46 µM) | MIC (E. faecium 19434): 4 µg/mL (≈ 10.9 µM) | MIC (E. coli 25922): < 0.03 µg/mL | MIC (P. aeruginosa 27853): 2 µg/mL (≈ 5.46 µM) | MIC (E. coli CTX-M-15): 16 µg/mL (≈ 43.7 µM) | MIC (E. coli 2906): 16 µg/mL (≈ 43.7 µM) | MIC (Klebsiella ssp KPC-3): 16 µg/mL (≈ 43.7 µM) | MIC (Pseudomonas ssp PER-1): 16 µg/mL (≈ 43.7 µM) | MIC (P. aeruginosa 1388-3-02): 32 µg/mL (≈ 87.3 µM) | MIC (P. aeruginosa 143-3-03): 8 µg/mL (≈ 21.8 µM) | MIC (S. pneumoniae 1027): 2 µg/mL (≈ 5.46 µM) | MIC [2]: 8 µg/mL (≈ 21.8 µM) | MIC ([7]; A. baumannii A14, without polymyxin B, 1st experiment, read-out: MIC without PB): 32 µg/mL (≈ 87.3 µM) | MIC ([7]; NCTC13301, A. baumannii NCTC 13301, without polymyxin B, 1st experiment, read-out: MIC without PB): 32 µg/mL (≈ 87.3 µM) | MIC ([7]; read-out: MIC range without PB 01-10-2008 n = 8, without polymyxin B, 1st experiment, 8 strains): 4 to 32 µg/mL (≈ 10.9 to 87.3 µM) | MIC +[…] PB (A. baumannii J2 [23]): 0.25 µg/mL (≈ 0.682 µM) | MIC [10, 24]: 16 µg/mL (≈ 43.7 µM) | MIC [10, 25]: 8 µg/mL (≈ 21.8 µM) | MBC +[…] PB (A. baumannii J2 [17]; A. baumannii J2, +[…] polymyxin B, 2nd experiment, preliminary MBC): 0.25 µg/mL (≈ 0.682 µM) | MBC ([18]; Acinetobacter spp. H064200250 (OXA51), without polymyxin B, 2nd experiment, preliminary MBC): > 32 µg/mL | MBC ([18]; Acinetobacter spp. H064200250, without polymyxin B, preliminary MBC, 1st experiment): 8 µg/mL (≈ 21.8 µM)
